Like-named read-outs stand apart in the source and are kept apart here.
Columns and labels:
[1] = system: HS 578T; assay: NCI five-dose assay; type: cell-based, human; conditions: Breast cancer
[2] = system: IGROV1; assay: NCI five-dose assay; type: cell-based, human; conditions: IGROV1, Ovarian cancer
[3] = system: A549/ATCC; assay: NCI five-dose assay; type: cell-based, human; conditions: Non-small cell lung cancer
[4] = system: Colon cancer subpanel; assay: NCI five-dose assay, subpanel mean; type: cell-based, human
[5] = system: SK-MEL-5; assay: NCI five-dose assay; type: cell-based, human; conditions: SK-MEL-5, Melanoma
[6] = system: Prostate cancer subpanel; assay: NCI five-dose assay, subpanel mean; type: cell-based, human
[7] = system: HOP-62; assay: NCI five-dose assay; type: cell-based, human; conditions: HOP-62, Non-small cell lung cancer
[8] = system: OVCAR-8; assay: NCI five-dose assay; type: cell-based, human; conditions: OVCAR-8, Ovarian cancer
[9] = system: COLO205; assay: NCI five-dose assay; type: cell-based, human; conditions: COLO205, Colon cancer
[10] = system: HT29; assay: NCI five-dose assay; type: cell-based, human; conditions: HT29, Colon cancer
[11] = system: panel of 60 human tumor cell lines; assay: NCI five-dose assay, full panel; type: cell-based
[12] = system: NCI-H322M; assay: NCI five-dose assay; type: cell-based, human; conditions: Non-small cell lung cancer
[13] = system: U251; assay: NCI five-dose assay; type: cell-based, human; conditions: U251, CNS cancer
[14] = system: EKVX; assay: NCI five-dose assay; type: cell-based, human; conditions: Non-small cell lung cancer
[15] = system: SF-295; assay: NCI five-dose assay; type: cell-based, human; conditions: SF-295, CNS cancer
[16] = target: T1, tubulin (Sus scrofa, UniProt P02550+P02554); assay: Tubulin polymerization inhibitory assay; type: biochemical
T1 construct: purchased Cytoskeleton Inc., Denver, CO, USA
Text: The substances’ effects on tubulin polymerization were examined using the Tubulin Polymerization Assay Kit (Cytoskeleton Inc., Denver, CO, USA) according to the supplier’s instructions, with details described in Appendix A..
The activity of compounds on tubulin polymerization was investigated using the Tubulin Polymerization Assay Kit (Cytoskeleton Inc., Denver, CO, USA), which works via fluorescent reporter enhancement. […] Docetaxel and vincristine (Apoteket AB, Stockholm, Sweden) served as positive stabilizing and destabilizing controls. Both were used at a 3 µM concentration in PBS.

[17] = system: SK-MEL-28; assay: NCI five-dose assay; type: cell-based, human; conditions: SK-MEL-28, Melanoma
[18] = system: A498; assay: NCI five-dose assay; type: cell-based, human; conditions: A498, Renal cancer
[19] = system: SNB-19; assay: NCI five-dose assay; type: cell-based, human; conditions: SNB-19, CNS cancer
[20] = system: MDA-MB-435; assay: NCI five-dose assay; type: cell-based, human; conditions: MDA-MB-435, Melanoma
[21] = system: NCI-H226; assay: NCI five-dose assay; type: cell-based, human; conditions: NCI-H226, Non-small cell lung cancer
[22] = system: KM12; assay: NCI five-dose assay; type: cell-based, human; conditions: KM12, Colon cancer
[23] = system: Ovarian cancer subpanel; assay: NCI five-dose assay, subpanel mean; type: cell-based, human
[24] = system: MCF7; assay: NCI five-dose assay; type: cell-based, human; conditions: MCF7, Breast cancer
[25] = system: T-47D; assay: NCI five-dose assay; type: cell-based, human; conditions: Breast cancer
[26] = Homo sapiens, read-out: GI50 Conc. per Cell Lines
[27] = Homo sapiens, 48 h, read-out: LC50 (the source's name)

T1 sequence (P02554 whole entry): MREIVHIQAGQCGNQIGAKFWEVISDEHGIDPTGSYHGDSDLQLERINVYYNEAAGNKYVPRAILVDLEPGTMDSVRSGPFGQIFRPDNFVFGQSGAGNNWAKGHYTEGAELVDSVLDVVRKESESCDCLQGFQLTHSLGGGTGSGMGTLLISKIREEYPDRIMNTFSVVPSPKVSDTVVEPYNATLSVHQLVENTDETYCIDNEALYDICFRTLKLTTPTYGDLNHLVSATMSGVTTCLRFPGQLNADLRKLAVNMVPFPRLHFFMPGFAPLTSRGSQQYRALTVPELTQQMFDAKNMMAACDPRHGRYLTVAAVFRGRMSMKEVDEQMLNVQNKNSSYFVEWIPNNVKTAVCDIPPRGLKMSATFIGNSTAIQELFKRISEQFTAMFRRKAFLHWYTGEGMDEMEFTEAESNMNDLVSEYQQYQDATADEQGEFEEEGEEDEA
T1 sequence (P02550 whole entry): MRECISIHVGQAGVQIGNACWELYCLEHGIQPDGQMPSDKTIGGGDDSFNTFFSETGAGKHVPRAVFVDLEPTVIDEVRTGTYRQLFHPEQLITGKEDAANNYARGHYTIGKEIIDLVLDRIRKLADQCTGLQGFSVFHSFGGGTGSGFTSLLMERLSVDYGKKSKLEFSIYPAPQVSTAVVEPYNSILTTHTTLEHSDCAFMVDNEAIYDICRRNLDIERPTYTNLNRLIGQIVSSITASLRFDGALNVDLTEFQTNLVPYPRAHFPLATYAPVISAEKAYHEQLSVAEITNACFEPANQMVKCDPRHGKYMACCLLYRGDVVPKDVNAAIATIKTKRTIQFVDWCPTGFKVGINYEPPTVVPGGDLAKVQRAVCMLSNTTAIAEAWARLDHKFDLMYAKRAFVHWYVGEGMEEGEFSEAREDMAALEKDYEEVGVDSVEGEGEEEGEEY

## Cc1ccc(C(=O)CSc2nnc(-c3c[nH]c4ccccc34)n2-c2ccccc2)cc1 [Compound 6h, 2-((5-(1H-Indol-3-yl)-4-phenyl-4H-1,2,4-triazol-3-yl)thio)-1-(p-tolyl)ethenone]
[1]
  TGI Conc. per Cell Lines: 56.30 µM
[1]; Homo sapiens, 48 h
  LC50: > 100 µM
[1]; [26]
  GI50: 14.1 µM
[2]; Homo sapiens, IGROV-1, 48 h, read-out: LC50 (the source's name)
  CC50: 61 µM
[2]; Homo sapiens, IGROV-1, read-out: GI50 Conc. per Cell Lines
  GI50: 16.1 µM
[2]
  TGI Conc. per Cell Lines: 31.30 µM
[3]; [27]
  CC50: > 100 µM
[3]; [26]
  GI50: 13.9 µM
[3]
  TGI Conc. per Cell Lines: 48.50 µM
[4]; Colon cancer subpanel
  GI50 Selectivity Ratio (MID a/MID b): 0.76
[4]; Homo sapiens, average sensitivity of all cell lines of the Colon cancer subpanel, read-out: GI50 Subpanel MID b
  GI50: 25.4 µM
[5]; [27]
  CC50: 92.4 µM
[5]; [26]
  GI50: 16.5 µM
[5]
  TGI Conc. per Cell Lines: 39.10 µM
[6]; Homo sapiens, average sensitivity of all cell lines of the Prostate cancer subpanel, read-out: GI50 Subpanel MID b
  GI50: 8.42 µM
[6]; Prostate cancer subpanel
  GI50 Selectivity Ratio (MID a/MID b): 2.29
[7]
  TGI Conc. per Cell Lines: 35.90 µM
[7]; [27]
  CC50: 80 µM
[7]; [26]
  GI50: 16.1 µM
[8]; [27]
  CC50: > 100 µM
[8]; [26]
  GI50: 24.5 µM
[8]
  TGI Conc. per Cell Lines: ˃100 µM
[9]
  TGI Conc. per Cell Lines: >100 µM
[9]; Homo sapiens, COLO 205, 48 h, read-out: LC50 (the source's name)
  CC50: > 100 µM
[9]; Homo sapiens, COLO 205, read-out: GI50 Conc. per Cell Lines
  GI50: 34.4 µM
[10]
  TGI Conc. per Cell Lines: 50.50 µM
[10]; Homo sapiens, HT-29, 48 h, read-out: LC50 (the source's name)
  CC50: > 100 µM
[10]; Homo sapiens, HT-29, read-out: GI50 Conc. per Cell Lines
  GI50: 15.6 µM
[11]; average sensitivity of all cell lines, read-out: GI50 MID a
  GI50: 19.3 µM
[11]; most of the tested cell lines across nine subpanels, read-out: GI50 values, range across nine subpanels
  GI50: 8.42 to 33.5 µM
[12]; [27]
  CC50: > 100 µM
[12]; [26]
  GI50: 16.3 µM
[12]
  TGI Conc. per Cell Lines: 55.50 µM
[13]; Homo sapiens, U-251, 48 h, read-out: LC50 (the source's name)
  CC50: > 100 µM
[13]; Homo sapiens, U-251, read-out: GI50 Conc. per Cell Lines
  GI50: 23.6 µM
[13]
  TGI Conc. per Cell Lines: 65.60 µM
[14]; [27]
  CC50: > 100 µM
[14]; [26]
  GI50: 19 µM
[14]
  TGI Conc. per Cell Lines: 98.90 µM
[15]; [27]
  CC50: 53.3 µM
[15]; [26]
  GI50: 12.6 µM
[15]
  TGI Conc. per Cell Lines: 25.90 µM
[16]
  tubulin inhibitory activity, times lower than compound 7j: 1.5 times
[16]; conc 0.01 (unit not given; IC50 from this curve in µg/ml)
  %inhibition: 5.97%
[16]; conc 0.1 (unit not given; IC50 from this curve in µg/ml)
  %inhibition: 16.8%
[16]; conc 1 (unit not given; IC50 from this curve in µg/ml)
  %inhibition: 30%
[16]; conc 10 (unit not given; IC50 from this curve in µg/ml)
  %inhibition: 58%
[16]; conc 100 (unit not given; IC50 from this curve in µg/ml)
  %inhibition: 81.2%
[16]; read-out: Tub. IC50±SD (converted)
  IC50: 9.51 µM
[16]; read-out: Tubulin Inhibitory Effect, IC50
  IC50: 9.5 ± 0.3 µM
[17]; [27]
  CC50: > 100 µM
[17]; [26]
  GI50: 19.6 µM
[17]
  TGI Conc. per Cell Lines: 52.10 µM
[18]
  TGI Conc. per Cell Lines: 69.40 µM
[18]; Homo sapiens, 48 h
  LC50: > 100 µM
[18]; [26]
  GI50: 22.1 µM
[19]; [27]
  CC50: 75.3 µM
[19]; [26]
  GI50: 15.8 µM
[19]
  TGI Conc. per Cell Lines: 34.50 µM
[20]; [27]
  CC50: > 100 µM
[20]; [26]
  GI50: 22.8 µM
[20]
  TGI Conc. per Cell Lines: 65.40 µM
[21]; [27]
  CC50: 69.8 µM
[21]; [26]
  GI50: 9.22 µM
[21]
  TGI Conc. per Cell Lines: 26.10 µM
[22]; [27]
  CC50: > 100 µM
[22]; [26]
  GI50: 36.1 µM
[22]
  TGI Conc. per Cell Lines: >100 µM
[23]; Homo sapiens, average sensitivity of all cell lines of the Ovarian cancer subpanel, read-out: GI50 Subpanel MID b
  GI50: 17.4 µM
[23]; Ovarian cancer subpanel
  GI50 Selectivity Ratio (MID a/MID b): 1.10
[24]; Homo sapiens, 48 h
  LC50: 98.1 µM
[24]; [26]
  GI50: 15.7 µM
[24]
  TGI Conc. per Cell Lines: 39.20 µM
[25]
  TGI Conc. per Cell Lines: ˃100 µM
[25]; Homo sapiens, T47D, 48 h
  LC50 (concentration killing 50% of cells): > 100 µM
[25]; Homo sapiens, T47D, read-out: GI50 Conc. per Cell Lines
  GI50: 24.9 µM

Source: publication PMC11859928, “Design, Synthesis, and Antiproliferative Activity of Novel Indole/1,2,4-Triazole Hybrids as Tubulin Polymerization Inhibitors” (Pharmaceuticals, 2025)
